The source of these data is patent publication US20240168030A1, “DIRECT FLUORESCENT GLYCAN LABELING” (BIO-TECHNE CORPORATION, priority 2019, published 2024).

One assay has as its target T1, FUT6 (Homo sapiens, UniProt P51993).
T1 sequence (P51993 1-359): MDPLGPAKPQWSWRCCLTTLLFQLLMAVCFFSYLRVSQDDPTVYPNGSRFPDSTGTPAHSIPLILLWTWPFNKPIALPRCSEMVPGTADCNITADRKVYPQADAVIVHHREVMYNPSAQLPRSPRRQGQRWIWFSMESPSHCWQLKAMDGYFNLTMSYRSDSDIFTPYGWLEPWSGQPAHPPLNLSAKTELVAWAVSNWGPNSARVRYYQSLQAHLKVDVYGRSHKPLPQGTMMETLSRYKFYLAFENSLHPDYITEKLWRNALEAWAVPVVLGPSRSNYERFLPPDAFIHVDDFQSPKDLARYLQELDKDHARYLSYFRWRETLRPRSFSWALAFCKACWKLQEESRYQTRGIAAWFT
Put plainly: Fluorescent labeling with fluorophore-conjugated fucose by FUT6. In kind it is biochemical. The arrangement: key: +++: indicated by number of + signs; ++: indicated by number of + signs; indicated by number of + signs. As to conditions: fluorophore-conjugated fucose donor; acceptor GlcNAc of lactosamine, sialylation on terminal Gal is flexible; FIG. 9. As to the method:
FIG. 9A-FIG. 9B show exemplary results of probing substrate glycans of various fucosyltransferases on fetuin and asialofetuin. FIG. 9A. Probing substrate glycans of fucosyltransferases with guanosine 5′-diphosphate activated Cy5 conjugated fucose (GDP-Cy5-Fuc). […] FUT9 labeled itself (indicated by an arrow in the gel). FIG. 9B. Tolerance of Alexa-Fluor®555 (555), Alexa-Fluor®488 (488), and Cy5 by the indicated fucosyltransferases. All reactions were incubated at 37° C. for 30 minutes and then separated on SDS-PAGE and imaged with silver staining (upper panels) and fluorescent imager (lower panels). M, molecular marker.
(§1) For a typical labeling reaction, 1 μg to 5 μg target protein was mixed with 0.2 nmol GDP-f-Fuc and 0.2 μg of a fucosyltransferase in 30 μL buffer of 25 mM Tris pH 7.5, 10 mM MnCl2. The mixture was incubated at 37° C. for 30 minutes. The reaction was then separated by sodium dodecyl sulfate—polyacrylamide gel electrophoresis (SDS-PAGE) and the gel was directly imaged using a fluorescent imager FluorChem M ProteinSimple, Bio-Techne, Minneapolis, MN), followed by imaging with traditional protein imaging methods such as silver staining or trichloroethanol (TCE) staining.
The four enzymes tolerated the three fluorophores to different levels.

The target of a further assay is T2, FUT8 (Homo sapiens, UniProt Q9BYC5).
T2 construct: purchased Bio-Techne (Minneapolis, MN)
T2 sequence (Q9BYC5 1-575): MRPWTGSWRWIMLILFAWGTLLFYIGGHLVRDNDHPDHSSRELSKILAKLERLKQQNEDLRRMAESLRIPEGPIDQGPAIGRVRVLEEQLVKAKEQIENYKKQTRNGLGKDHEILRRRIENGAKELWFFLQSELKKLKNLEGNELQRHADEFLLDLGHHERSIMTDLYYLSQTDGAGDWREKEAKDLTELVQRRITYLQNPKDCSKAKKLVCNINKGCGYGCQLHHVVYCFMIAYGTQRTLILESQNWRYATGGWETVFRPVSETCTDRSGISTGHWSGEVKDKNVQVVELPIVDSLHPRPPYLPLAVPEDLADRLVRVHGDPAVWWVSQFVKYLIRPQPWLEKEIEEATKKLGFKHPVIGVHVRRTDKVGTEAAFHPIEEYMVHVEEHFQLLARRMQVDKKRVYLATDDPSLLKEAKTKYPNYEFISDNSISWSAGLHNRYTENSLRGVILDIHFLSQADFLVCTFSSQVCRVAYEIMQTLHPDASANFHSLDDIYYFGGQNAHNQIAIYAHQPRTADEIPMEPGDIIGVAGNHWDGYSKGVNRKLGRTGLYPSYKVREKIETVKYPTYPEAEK
The assay is described as follows: Fluorescent labeling with fluorophore-conjugated fucose by FUT8. Format: biochemical. Also on record: key to Tolerance of the fluorophore by FUT8: +++: indicated by number of + signs; ++: indicated by number of + signs; indicated by number of + signs. Conditions: for Incorporation of conjugated fucose into antibodies by FUT8: Cantuzumab (FUT8 knockout cells) and NIST mAb 8671, FIG. 10A; for Tolerance of the fluorophore by FUT8: fluorophore-conjugated fucose donor, acceptor core GlcNAc of N-glycans, labeled Cantuzumab in FIG. 10.
Excerpt: FIG. 10A-FIG. 10D show exemplary results of probing core-6 fucosylation on antibodies by FUT8 incorporation of fluorophores. FIG. 10A. Results of probing substrate glycans of FUT8 (F8) and FUT9 (F9) on Cantuzumab, an anti-Muc1 therapeutic antibody, and NIST reference mAb 8671 using guanosine 5′-diphosphate activated Alexa-Fluor®555 conjugated fucose (GDP-AF555-Fuc) (555), GDP-Cy5-fucose (Cy5), and guanosine 5′-diphosphate activated Alexa-Fluor®488 conjugated fucose (GDP-AF488-Fuc) (488) as donor substrates. Cantuzumab was expressed in FUT8 knockout cells and is devoid of core-6 fucose. Molecular marker (MM) is a prestained Western molecular marker (Bio-Rad Laboratories, Hercules, CA). […] The product of each reaction was separated using SDS-PAGE and imaged with trichloroethanol (TCE) staining (upper panel) and fluorescent imager (lower panel). Labeling on the light chains of the antibodies by Alexa-Fluor®555 is likely the result of non-specific staining due to the use of unpurified GDP-AF555-Fuc that contained free Alexa-Fluor®555. FIG. 10B. […] FIG. 10C. […] FIG. 10D. Schematics of the glycan structures analyzed in FIG. 10B and FIG. 10C.
as §1
Although FUT8 was known to tolerate azido-fucose (Wu et al. Biochem Biophys Res Commun 473, 524-529 (2016)), it was unknown whether FUT8 could tolerate a fluorophore-conjugated fucose. To test whether FUT8 could tolerate the fluorophore-conjugated fucose and detect its substrate glycans, two substrates were used: Cantuzumab was prepared from a FUT8 knockout cell line, and a reference monoclonal antibody from the National Institute of Standards and Technology (NIST mAb, material 8671, Gaithersburg, MD). The NIST mAb is a humanized IgG1κ monoclonal antibody (Kashi et al. MAbs 10, 922-933 (2018)). IgG antibodies are known to contain an N-glycan site on their heavy chains (Reusch et al. Glycobiology 25, 1325-1334 (2015)).

Regarding “guanosine 5′-diphosphate activated Alexa-Fluor®488 conjugated fucose [GDP-AF488-Fuc]”, on FUT6, the “Tolerance of the fluorophore by FUT6” value is “++”. Moreover, at FUT8, the “Incorporation of conjugated fucose into antibodies by FUT8” value is given as “introduced into Cantuzumab but not to NIST mAb” and the “Tolerance of the fluorophore by FUT8” value is on record as “++”.
Consider “guanosine 5′-diphosphate activated Alexa-Fluor®555 conjugated fucose [GDP-AF555-Fuc]”, for which, on FUT6, the “Tolerance of the fluorophore by FUT6” value is “++”. Moreover, at FUT8, the “Incorporation of conjugated fucose into antibodies by FUT8” value is “introduced into Cantuzumab but not to NIST mAb” and the “Tolerance of the fluorophore by FUT8” value is given as “++”.
